Test: The compound was tested for anesthetic potency in tadpoles
Format: functional, frog

Structure (SMILES): CCCCCC1(CCO)N=N1
- EC50: 160 µM
